Literature values as cited in patent publication US9187467B2, “2-phenyl benzothiazole linked imidazole compounds as potential anticancer agents and process for the preparation thereof” (Council of Scientific and Industrial Research, priority 2012, dated 2015).

Columns and labels:
Design in all cases: unit not given here
M14 = conditions: previous compounds (U.S. Pat. No. 7,384,966); cited from earlier work
SNB-75 = conditions: previous compounds (U.S. Pat. No. 7,384,966); cited from earlier work
786-0 = conditions: previous compounds (U.S. Pat. No. 7,384,966); cited from earlier work
MALME-3M = conditions: previous compounds (U.S. Pat. No. 7,384,966); cited from earlier work
MDA-MB-231/ATCC = conditions: previous compounds (U.S. Pat. No. 7,384,966); cited from earlier work
K-562 = conditions: previous compounds (U.S. Pat. No. 7,384,966); cited from earlier work
NCI-H522 = conditions: previous compounds (U.S. Pat. No. 7,384,966); cited from earlier work
PC-3 = conditions: previous compounds (U.S. Pat. No. 7,384,966); cited from earlier work
UACC-62 = conditions: previous compounds (U.S. Pat. No. 7,384,966); cited from earlier work
U251 = conditions: previous compounds (U.S. Pat. No. 7,384,966); cited from earlier work
ACHN = conditions: previous compounds (U.S. Pat. No. 7,384,966); cited from earlier work
SF-268 = conditions: previous compounds (U.S. Pat. No. 7,384,966); cited from earlier work
HOP-62 = conditions: previous compounds (U.S. Pat. No. 7,384,966); cited from earlier work
BT-549 = conditions: previous compounds (U.S. Pat. No. 7,384,966); cited from earlier work
MOLT-4 = conditions: previous compounds (U.S. Pat. No. 7,384,966); cited from earlier work
UO-31 = conditions: previous compounds (U.S. Pat. No. 7,384,966); cited from earlier work
SW-620 = conditions: previous compounds (U.S. Pat. No. 7,384,966); cited from earlier work
OVCAR-8 = conditions: previous compounds (U.S. Pat. No. 7,384,966); cited from earlier work
SF-539 = conditions: previous compounds (U.S. Pat. No. 7,384,966); cited from earlier work
OVCAR-3 = conditions: previous compounds (U.S. Pat. No. 7,384,966); cited from earlier work
CCRF-CEM = conditions: previous compounds (U.S. Pat. No. 7,384,966); cited from earlier work
SF-295 = conditions: previous compounds (U.S. Pat. No. 7,384,966); cited from earlier work
NCI/ADR-RES = conditions: listed as head printed RES (second line of NCI/ADR-RES); previous compounds (U.S. Pat. No. 7,384,966); cited from earlier work
DU-145 = conditions: previous compounds (U.S. Pat. No. 7,384,966); cited from earlier work
HL-60 (TB) = conditions: previous compounds (U.S. Pat. No. 7,384,966); cited from earlier work
HS 578T = conditions: previous compounds (U.S. Pat. No. 7,384,966); cited from earlier work
CAKI-1 = conditions: previous compounds (U.S. Pat. No. 7,384,966); cited from earlier work
SNB-19 = conditions: previous compounds (U.S. Pat. No. 7,384,966); cited from earlier work
A549/ATCC = conditions: previous compounds (U.S. Pat. No. 7,384,966); cited from earlier work
SN12C = conditions: previous compounds (U.S. Pat. No. 7,384,966); cited from earlier work
LOX IMVI = conditions: previous compounds (U.S. Pat. No. 7,384,966); cited from earlier work
EKVX = conditions: previous compounds (U.S. Pat. No. 7,384,966); cited from earlier work
NCI-H23 = conditions: previous compounds (U.S. Pat. No. 7,384,966); cited from earlier work
UACC-257 = conditions: previous compounds (U.S. Pat. No. 7,384,966); cited from earlier work

Measured: Log10GI50

COc1ccc(-c2nc3ccc(F)cc3s2)cc1OC [Compound 3d]
>−4.0: all assays above
